Our source for the Activity, Drug uptake and IC50 values is ChEMBL document CHEMBL5625215, “Antiproliferative activity of meso-substituted BODIPY photocages: Effect of electrophiles vs singlet oxygen” (Eur J Med Chem, 2023).

pIC50: −log10 of the molar value. The source made the active and inactive calls. The calls are words filed in the database; no cut-off is given here. A value given as a limit tells only on which side of the number the result lay.

A short description of data set [1]: Fluorescence property of compound in CH3OH assessed as fluorescence quantum yield. Type of data set: physicochemical.
Data set [2] can be described thus: Drug localization in cytoplasm of human NCI-H460 cells at 10 uM incubated for 30 mins by Hoechst 33342 staining based confocal microscopic analysis. Type of data set: ADME, subcellular. To be noted: nci-h460, 0.5 h.
In data set [3] the test system is MCF7. In words: Antiproliferative activity against human MCF7 cells assessed as inhibition of cell growth incubated for 72 hrs under dark condition by MTT assay. Type of data set: functional, cell-based. To be noted: MCF7, 72 h. Background: Tetrazolium assays rely on reduction of a dye to a coloured formazan, in cell work by metabolically active cells.
Data set [4] deals with HCT-116. In words: Antiproliferative activity against human HCT-116 cells assessed as inhibition of cell growth incubated for 72 hrs under photoirradiation with 6 cool white lamps for 15 mins at 4,28 and 52 hrs after compound addition by MTT assay. The data set is classed as functional, cell-based. The settings on record: HCT-116, light or radiation study.
The nature of data set [5]: Drug localization in endoplasmic reticulum of human NCI-H460 cells at 10 uM incubated for 30 mins by Hoechst 33342 staining based confocal microscopic analysis. The settings on record: nci-h460, 0.5 h. Type of data set: ADME, subcellular.
Data set [6] in a line: Emission property of compound in CH3CN assessed as maximal wavelength by […]. The data set is classed as physicochemical.
Data set [7] is described as follows: Cytotoxicity against HEK293T cells assessed as inhibition of cell growth incubated for 72 hrs under photoirradiation with 6 cool white lamps for 15 mins at 4,28 and 52 hrs after compound addition by MTT assay. The data set is classed as toxicity, cell-based, HEK-293T. To be noted: human.
The subject of data set [8] is MCF7. In words: Antiproliferative activity against human MCF7 cells assessed as inhibition of cell growth incubated for 72 hrs under photoirradiation with 6 cool white lamps for 15 mins at 4,28 and 52 hrs after compound addition by MTT assay. Type of data set: functional, cell-based. The settings on record: MCF7, light or radiation study.
A short description of data set [9]: Cytotoxicity against human HaCaT cells assessed as inhibition of cell growth incubated for 72 hrs under dark condition by MTT assay. Type of data set: toxicity, cell-based.
Data set [10] is described as follows: Cytotoxicity against human HaCaT cells assessed as inhibition of cell growth incubated for 72 hrs under photoirradiation with 6 cool white lamps for 15 mins at 4,28 and 52 hrs after compound addition by MTT assay. Type of data set: toxicity, cell-based.
For data set [11], the system named is HEK-293T. The experiment in a line: Induction of apoptosis in HEK293T cells assessed as dye bleaching irradiated with visible light by Hoechst 33342 staining based confocal microscopic analysis. The data set is classed as toxicity, cell-based. To be noted: human.
In data set [12] the test system is HCT-116. In words: Induction of ROS generation in human HCT-116 cells at 5 uM incubated for 1 hrs under dark condition by DCFH-DA staining based fluorescence analysis. Type of data set: functional, cell-based.
Data set [13] relates to NCI-H460. The experiment in a line: Antiproliferative activity against human NCI-H460 cells assessed as inhibition of cell growth incubated for 72 hrs under photoirradiation with 6 cool white lamps for 15 mins at 4,28 and 52 hrs after compound addition by MTT assay. Type of data set: functional, cell-based. To be noted: NCI-H460, light or radiation study.
Data set [14] in a line: Absorption property of compound in CH3CN assessed as maximal wavelength by UV-vis spectrophotometer. Type of data set: physicochemical.
For data set [15], the system named is NCI-H460. In words: Induction of cell death in human NCI-H460 cells assessed as membrane blebbing at 1 uM preincubated for 30 mins followed by light irradiation for 15 to 30 mins by Hoechst 33342 staining based confocal microscopic analysis. The settings on record: time 45-60 min. The data set is classed as functional.
Data set [16] can be described thus: Drug localization in lipid droplets of human NCI-H460 cells at 10 uM incubated for 30 mins by Hoechst 33342 staining based confocal microscopic analysis. The data set is classed as ADME, subcellular, Lipid droplet. To be noted: nci-h460, 0.5 h.
For data set [17], the system named is HEK-293T. The experiment in a line: Induction of apoptosis in HEK293T cells assessed as cell death irradiated with visible light by Hoechst 33342 staining based confocal microscopic analysis. To be noted: human. Type of data set: toxicity.
Data set [18] can be described thus: Drug localization in nuclear membrane of human NCI-H460 cells at 10 uM incubated for 30 mins by Hoechst 33342 staining based confocal microscopic analysis. The data set is classed as ADME, cell membranes. To be noted: nci-h460, 0.5 h.
A short description of data set [19]: Drug localization in golgi body of human NCI-H460 cells at 10 uM incubated for 30 mins by Hoechst 33342 staining based confocal microscopic analysis. The data set is classed as ADME, subcellular. The settings on record: nci-h460, 0.5 h.
The nature of data set [20]: Drug uptake in HEK293T cells by fluorescence microscopic analysis. The data set is classed as ADME, cell-based. The settings on record: human, hek-293t.
Data set [21] deals with NCI-H460. In words: Induction of cell death in human NCI-H460 cells assessed as cell shrinkage at 1 uM preincubated for 30 mins followed by light irradiation for 15 to 30 mins by Hoechst 33342 staining based confocal microscopic analysis. The data set is classed as functional. To be noted: time 45-60 min.
The nature of data set [22]: Fluorescence property of compound in CH3CN assessed as fluorescence quantum yield by spectrofluorometric analysis. The data set is classed as physicochemical.
Data set [23] concerns NCI-H460. In words: Induction of cell death in human NCI-H460 cells assessed as shrinkage of nuclear volume at 1 uM preincubated for 30 mins followed by light irradiation for 15 to 30 mins by Hoechst 33342 staining based confocal microscopic analysis. To be noted: time 45-60 min. The data set is classed as functional.
The nature of data set [24]: Cytotoxicity against HEK293T cells assessed as inhibition of cell growth incubated for 72 hrs under dark condition by MTT assay. To be noted: human. The data set is classed as toxicity, cell-based, HEK-293T.
Data set [25] concerns NCI-H460. The experiment in a line: Antiproliferative activity against human NCI-H460 cells assessed as inhibition of cell growth incubated for 72 hrs under dark condition by MTT assay. The data set is classed as functional, cell-based. The settings on record: NCI-H460, 72 h.
For data set [26], the system named is HCT-116. In words: Antiproliferative activity against human HCT-116 cells assessed as inhibition of cell growth incubated for 72 hrs under dark condition by MTT assay. The data set is classed as functional, cell-based. To be noted: HCT-116, 72 h.
The subject of data set [27] is HCT-116. In words: Induction of ROS generation in human HCT-116 cells assessed as increase in oxidative stress at 5 uM preincubated with compound for 1 hrs followed by photoirradiation with 6 cool white lamps by DCFH-DA staining based fluorescence analysis. Type of data set: functional, cell-based.
Data set [28] is described as follows: Absorption property of compound in CH3CN assessed as maximal molar absorption coefficient by UV-vis spectrophotometer. Type of data set: physicochemical.
The subject of data set [29] is NCI-H460. In words: Induction of cell death in human NCI-H460 cells assessed as dye bleaching at 1 uM preincubated for 30 mins followed by light irradiation for 15 to 30 mins by Hoechst 33342 staining based confocal microscopic analysis. Type of data set: functional. To be noted: time 45-60 min.

On to `CCN(CC)c1ccc2c(-c3ccccc3C(=O)O)c3ccc(=[N+](CC)CC)cc-3oc2c1.[Cl-]` [RHODAMINE], for which the Activity in data set [1] was 0.66.

In the case of `CC1=CC(C)=[N+]2C1=C(CO)c1c(C)cc(C)n1[B-]2(C)C`, the Drug uptake result in [2], in data set [5], in [16], in data set [18], in data set [19] and in [20] was “Active” in each case. Besides, the pIC50 in the data set on MCF7 [3] was under 4.00; in the data set on HCT-116 [4], 6.77; in the data set on MCF7 [8], 6.82; with NCI-H460 [13], 6.77; in the data set on NCI-H460 [25] it was under 4.00; in the data set with HCT-116 [26], under 4.00. The Activity in [6] is 517 nm; in the data set on HEK-293T [11], “Toxic”; in data set [14] it was 505 nm; in the data set on HEK-293T [17], “Toxic”; in [22], 0.32; in data set [28], 88894 M⁻¹ cm⁻¹. Also, the IC50 at 72 h in data set [7] came to 300 nM; in data set [9], 68 µM; in data set [10], 300 nM; in data set [24] it was 38 µM. In addition, the outcome with HCT-116 [12] was inactive. For the same molecule, the result with NCI-H460 [15], with NCI-H460 [21], with NCI-H460 [23], in the data set with HCT-116 [27] and in the data set on NCI-H460 [29] was Active.

What is called pIC50 is −log10 of the IC50, conventionally taken in molar units. One may read the IC50 as the concentration needed to halve the response being measured.
